Laboratory results reported in patent US6545131B1, “Tissue specific prodrug” (priority 1997, dated 2003).
Starred links: 1 amine or outer side, 2 acyl side, 3 side chain; linkers in the order of their positions; H or OH if unused. Residues, ends and D or L forms follow the SMILES beside them. *: point of attachment. Mu = morpholinocarbonyl, O=C(N1CCOCC1)*; AMC = Cc1cc(=O)oc2cc(N*)ccc12; Morpholide = C1CN(*)CCO1; CO = O=C([*:1])[*:2]

Assays:
TSU-Pr1 cells = test: Clonogenic survival of TSU-Pr1 cells after 72 hours exposure to TG analogs; type: cell-based, human; settings: TSU-Pr1, 72 hours exposure; mean (n=5) ± standard error; read-out: LC50 (concentration needed to kill 50% of clonogenic cells)
Protocol: The primary amine-containing thapsigargin analogs of the invention have non-specific toxicity toward cells. This toxicity is measured as the concentration of analog needed to kill 50% of clonogenic cells (LC50). The LC50 of the analogs of the invention is desirably at most 20 μM, preferably at most 5 μM, and more preferably at most 500 nM of analog.
Percentage clonogenic survival of TSU-Pr1 (2×10^5 cells) following 72 hours of exposure to varying concentrations of TG analogs was performed as described in Martikainen et al. Cancer Res., 51, 4693-4700 (1991).
The IC50 results are mean (n=3)±standard error. The LC50 results are mean (n=5)±standard error. The entry “ND” stands for “not determined”. Clonogenic survival not determined above 10 μM for dBTG. Analogs with −boc have a t-butoxycarbonyl (boc) protected amino group.
The androgen responsive PSA-producing LNCaP and androgen independent PSA non-producing TSU-Pr1 are human prostate cancer lines were obtained from ATCC (Rockville, Md.) and maintained by serial passage in RPMI 1640 media containing 10% fetal calf serum with 100 units/ml penicillin G, and 100 units/ml streptomycin sulfate (antibiotics from M.A. Bioproducts, Walkerville, Md.) as standard media in 5% CO2/95% air at 37° C. The origins and characteristics of the LNCaP and TSU-Pr1 cell lines are described in Horoszewicz, et al., Cancer Res., 43:1809-1818, (1980)and Iizumi, et al., J. Urol, 137: 1304-1306, (1987).

[1] = molecular target: T1, PSA (prostate specific antigen) (Homo sapiens, UniProt P07288); test: Cleavage of AMC-labelled peptide substrates by purified PSA (fluorescence of released AMC; Lineweaver-Burke kinetics); type: biochemical; settings: 0.2 mM substrate
T1 construct: PSA was purified from human seminal plasma; from tissue; host or cells: human seminal plasma
T1 sequence (P07288 25-261): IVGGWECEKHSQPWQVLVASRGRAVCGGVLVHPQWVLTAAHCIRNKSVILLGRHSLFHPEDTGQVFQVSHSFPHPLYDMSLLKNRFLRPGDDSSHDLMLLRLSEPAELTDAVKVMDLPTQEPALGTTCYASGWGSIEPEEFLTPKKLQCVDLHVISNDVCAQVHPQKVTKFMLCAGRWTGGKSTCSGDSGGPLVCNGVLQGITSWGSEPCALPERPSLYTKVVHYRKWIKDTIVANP
Protocol: (§1) The peptides discussed herein were custom synthesized by Enzyme Systems Products (Dublin, Calif.) and, after HPLC separation and purification to >95%, the molecular weights were confirmed by mass spectroscopy. All peptides had morpholinocarbonyl protecting the amino terminus and 7-amino-4-methylcoumarin (AMC) attached via an amide bond to the carboxyl group of the carboxy-terminal amino acid. Peptides were first dissolved in distilled water (5 mM) and then diluted into PSA assay buffer (50 mM Tris/0.1M NaCl pH 7.8). The glutamine-AMC peptide had the amino terminus and side chain amine unprotected and was obtained from Bachem (Torrance, Calif.).
(§2) PSA was purified from human seminal plasma as described in Christensson, et al. Eur. J. Biochem. 194:755-765, (1990). Plasmin, urokinase, tissue plasminogen activator (TPA), human plasma and porcine pancreatic kallikrein and a 1-antichymotrypsin were obtained from Calbiochem (San Diego, Calif.). All other proteases were obtained from Sigma Chemical Co. (St. Louis, Mo.). Mouse serum was obtained from East Acres Biologicals (South Bridge, Mass.). Goat and calf sera were obtained from Gibco BRL (Grand Island, N.Y.). Rat serum was obtained in-house from sacrificed animals. Human serum was obtained from volunteers.
(§3) Cleavage was studied by measuring fluorescence change secondary to AMC release. Fluorescence detection was carried out with a Fluoroskan II 96 well fluorometric plate reader (ICN Biomedicals, Costa Mesa, Calif.), with excitation wavelength 355 nm and emission wavelength 460 nm. Data were collected and analyzed using Deltasoft III software (Biometallics, Princeton, N.J.). All reactions were performed at room temperature by the addition of substrate and proteases into PSA buffer, described below, in a final volume of 200 μL. The results were determined from the initial linear increase of fluorescence and were expressed as the picomoles of AMC released per minute based upon comparison to a standard curve of the fluorescence of known amounts of AMC (i.e., fluorescence was linear form 20 to 300 picomoles of AMC). The data were analyzed by Lineweaver-Burke reciprocal plots to determine the Michaelis-Menten constant (i.e., Km) expressed as the amount of substrate needed to saturate half of the enzyme and the catalytic rate constant (i.e., kcat) expressed as the amount of substrate converted to product per time per amount of enzyme.
(§4) Each assay contains 200 picomoles of the particular protease and 0.2 mM concentration of the particular substrate (i.e., 40,000 picomoles/200 μL of assay volume). The amino acid sequences expressed in one letter amino acid code represent the following amino acid sequences in the three letter amino acid code: EHSSKLQ (Glu-His-Ser-Ser-Lys-Leu-Gln; SEQ ID NO:10), QNKISYQ (Gln-Asn-Lys-Ile-Ser-Tyr-Gln; SEQ ID NO:11), ENKISYQ (Glu-Asn-Lys-Ile-Ser-Tyr-Gln; SEQ ID NO:12), and ATKSKQH (Ala-Thr-Lys-Ser-Lys-Gln-His; SEQ ID NO:13). Determinations listed in the table were carried out with substrates at 0.2 mM concentration in the PSA assay buffer (50 mM Tris/0.1M NaCl pH 7.8). The entry “UD” stands for “undetectable” and means that at most, 0.1 pmole of substrate cleavage per minute per 200 pmole protease took place. Asterisks represent experiments not performed. Abbreviations are as follows: PSA (prostate specific antigen), Chymo (chymotrypsin), Urokin (urokinase), TPA (tissue plasminogen activator), Thromb (thrombin), Kallik (human kallikrein, hK1).
The data in Table 2 are the results of kinetic experiments with the peptide substrates used in Example 1. Experimental details are found in Example 1.
The amino acid sequences expressed in one letter amino acid code represent the following amino acid sequences in the three letter amino acid code: EHSSKLQ (Glu-His-Ser-Ser-Lys-Leu-Gln; SEQ ID NO:10), HSSKLQ (His-Ser-Ser-Lys-Leu-Gln; SEQ ID NO:7), SKLQ (Ser-Lys-Leu-Gln; SEQ ID NO:1), and ATKSKQH (Ala-Thr-Lys-Ser-Lys-Gln-His; SEQ ID NO:13). […]

Elastase = test: Peptide-AMC cleavage by purified extracellular protease; type: biochemical; settings: 0.2 mM substrate, PSA assay buffer pH 7.8
Protocol: as §1, §2, §3, §4

Plasmin = molecular target: T2, Plasmin (Homo sapiens, UniProt P00747); test: as above; type: biochemical; settings: 0.2 mM substrate, PSA assay buffer pH 7.8
T2 construct: purchased Calbiochem
T2 sequence (P00747 581-810 limits assumed, species assumed): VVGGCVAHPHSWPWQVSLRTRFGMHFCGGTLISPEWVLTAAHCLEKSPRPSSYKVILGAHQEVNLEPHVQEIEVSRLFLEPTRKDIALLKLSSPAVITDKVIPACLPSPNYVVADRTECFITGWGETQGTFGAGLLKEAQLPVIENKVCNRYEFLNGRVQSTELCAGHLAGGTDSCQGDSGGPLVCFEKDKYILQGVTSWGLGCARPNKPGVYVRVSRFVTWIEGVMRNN
T2 sequence (P00747 97-580 partner limits assumed, species assumed): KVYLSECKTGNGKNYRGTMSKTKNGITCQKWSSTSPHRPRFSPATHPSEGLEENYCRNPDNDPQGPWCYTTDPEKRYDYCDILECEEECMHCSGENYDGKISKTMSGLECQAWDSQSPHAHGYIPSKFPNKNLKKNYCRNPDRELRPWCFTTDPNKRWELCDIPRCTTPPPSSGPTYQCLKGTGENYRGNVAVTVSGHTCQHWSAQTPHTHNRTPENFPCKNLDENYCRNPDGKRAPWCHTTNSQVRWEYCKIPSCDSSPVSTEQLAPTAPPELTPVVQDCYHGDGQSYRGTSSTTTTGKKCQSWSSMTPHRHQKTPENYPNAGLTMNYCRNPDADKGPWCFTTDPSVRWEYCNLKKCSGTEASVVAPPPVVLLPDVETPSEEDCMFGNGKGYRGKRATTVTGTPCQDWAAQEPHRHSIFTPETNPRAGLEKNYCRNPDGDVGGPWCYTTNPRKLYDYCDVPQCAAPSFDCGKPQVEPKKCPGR
Protocol: as §1, §2, §3, §4

Trypsin = test: as above; type: biochemical; settings: 0.2 mM substrate, PSA assay buffer pH 7.8
Protocol: as §1, §2, §3, §4

chymotrypsin = molecular target: T3, chymotrypsin (Bos taurus, UniProt P00766); test: as above; type: biochemical; settings: 0.2 mM substrate, PSA assay buffer pH 7.8
T3 construct: purchased Sigma Chemical Co
Protocol: as §1, §2, §3, §4

thrombin = molecular target: T4, thrombin (Homo sapiens, UniProt P00734); test: as above; type: biochemical; settings: 0.2 mM substrate, PSA assay buffer pH 7.8
T4 construct: purchased Sigma Chemical Co
Protocol: as §1, §2, §3, §4

[2] = molecular target: T5, tissue plasminogen activator (TPA) (Homo sapiens, UniProt P00750); test: as above; type: biochemical; settings: 0.2 mM substrate, PSA assay buffer pH 7.8
T5 construct: purchased Calbiochem
T5 sequence (P00750 36-562, species assumed): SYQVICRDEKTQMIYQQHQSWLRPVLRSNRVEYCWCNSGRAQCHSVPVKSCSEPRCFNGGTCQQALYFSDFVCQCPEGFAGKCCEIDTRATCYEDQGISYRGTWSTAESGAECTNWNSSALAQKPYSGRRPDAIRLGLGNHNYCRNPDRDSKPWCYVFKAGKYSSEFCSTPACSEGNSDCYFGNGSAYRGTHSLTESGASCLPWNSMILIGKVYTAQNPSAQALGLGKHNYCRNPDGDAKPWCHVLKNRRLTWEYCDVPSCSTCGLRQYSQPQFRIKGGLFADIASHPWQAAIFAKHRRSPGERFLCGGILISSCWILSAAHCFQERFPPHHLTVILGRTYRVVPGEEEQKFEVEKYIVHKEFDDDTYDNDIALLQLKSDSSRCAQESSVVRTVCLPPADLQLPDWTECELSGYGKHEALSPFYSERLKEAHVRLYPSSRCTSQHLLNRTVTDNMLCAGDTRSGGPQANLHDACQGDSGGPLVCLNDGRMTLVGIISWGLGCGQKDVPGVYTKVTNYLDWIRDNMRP
Protocol: as §1, §2, §3, §4

[3] = Stability of PSA substrates in serum (AMC release); type: in vitro ADME; settings: 0.2 mM substrate
Description: as §2, §3
Because the prodrug can be given systemically via the blood, it is useful to determine the stability of the substrates in sera from a variety of species. The substrates and experimental details are found as described in Example 1.
The amino acid sequences expressed in one letter amino acid code represent the following amino acid sequences in the three letter amino acid code: EHSSKLQ (Glu-His-Ser-Ser-Lys-Leu-Gln; SEQ ID NO:10), QNKISYQ (Gln-Asn-Lys-Ile-Ser-Tyr-Gln; SEQ ID NO:11), ENKISYQ (Glu-Asn-Lys-Ile-Ser-Tyr-Gln; SEQ ID NO:12) and ATKSKQH (Ala-Thr-Lys-Ser-Lys-Gln-His; SEQ ID NO:13). Determinations listed in the table were carried out with substrates at 0.2 mM concentration in the PSA assay buffer (50 mM Tris/0.1M NaCl pH 7.8). AMC is 7-amino-4-methylcoumarin. The human serum used was 100% for each assay. The entry “UD” stands for “undetectable”, and means that not more than 0.01 picomole of substrate per minute was cleaved.

Cathepsin B = molecular target: T6, Cathepsin B (Homo sapiens, UniProt P07858); test: PSA substrate cleavage by purified intracellular protease; type: biochemical; settings: 0.2 mM substrate, pH 7.8; SKLQ, KLQ, LQ in 1.4% acetonitrile/buffer, Q-AMC in 0.2% formic acid/buffer
T6 construct: purchased Sigma Chemical Co
Protocol: as §3
(§5) A family of peptide substrates based upon the EHSSKLQ (SEQ ID NO:10) sequence was assayed for activity for the intracellular proteases, and the results given in Table 4.
(§6) The amino acid sequences expressed in one letter amino acid code represent the following amino acid sequences in the three letter amino acid code: EHSSKLQ (Glu-His-Ser-Ser-Lys-Leu-Gln; SEQ ID NO:10), The shorter sequences are formed by deleting amino acids from the amino terminal side of the sequence. Determinations listed in the table were carried out with substrates at 0.2 mM concentration in the PSA assay buffer (50 mM Tris/0.1M NaCl pH 7.8), except SKLQ (SEQ ID NO:1), KLQ and LQ, which were carried out in 1.4% acetonitrile/buffer and Q-AMC which was carried out in 0.2% formic acid/buffer, at pH 7.8. The entry “UD” stands for “undetectable” and means that at most, 0.1 pmole of substrate cleavage per minute per 200 pmole protease took place. Asterisks represent experiments not performed. Abbreviations are as follows: PSA (prostate specific antigen), Cath B, C, D (Cathepsins, B, C, D), Esterase (porcine liver esterase).

Cathepsin C = molecular target: T7, Cathepsin C (Homo sapiens, UniProt P53634); test: as above; type: biochemical; settings: 0.2 mM substrate, pH 7.8; SKLQ, KLQ, LQ in 1.4% acetonitrile/buffer, Q-AMC in 0.2% formic acid/buffer
T7 construct: purchased Sigma Chemical Co
T7 sequence (P53634 25-463): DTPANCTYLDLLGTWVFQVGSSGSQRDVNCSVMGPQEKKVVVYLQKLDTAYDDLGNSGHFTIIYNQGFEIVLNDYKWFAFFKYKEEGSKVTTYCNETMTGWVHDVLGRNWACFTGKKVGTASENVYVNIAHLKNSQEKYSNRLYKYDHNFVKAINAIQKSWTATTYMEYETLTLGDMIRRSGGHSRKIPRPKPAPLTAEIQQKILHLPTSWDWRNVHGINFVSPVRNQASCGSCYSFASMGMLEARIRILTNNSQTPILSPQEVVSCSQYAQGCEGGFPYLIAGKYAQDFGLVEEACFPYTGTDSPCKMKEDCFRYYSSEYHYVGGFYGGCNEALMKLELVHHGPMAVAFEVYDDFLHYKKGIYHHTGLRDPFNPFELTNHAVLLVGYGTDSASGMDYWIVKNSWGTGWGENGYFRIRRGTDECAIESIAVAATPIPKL
Protocol: as §3, §5, §6

porcine liver esterase = test: as above; type: biochemical; settings: 0.2 mM substrate, pH 7.8; SKLQ, KLQ, LQ in 1.4% acetonitrile/buffer, Q-AMC in 0.2% formic acid/buffer
Protocol: as §3, §5, §6

C/C=C(/C)C(=O)OC1C(C)=C2C(C1OC(=O)CCCCCCC)C(C)(OC(C)=O)CC(OC(=O)Cc1ccc(N)cc1)C1(O)C2OC(=O)C1(C)O (centres unmarked) [AAT, 8-O-(2-[4-aminophenyl]acetyl)-8-O-debutanoylthapsigargin]
CC50 (TSU-Pr1 cells): > 10 µM

8-O-(2-[4-t-butoxycarbonylaminophenyl]acetyl)-8-O-debutanoylthapsigargin [AAT-boc]
CC50 (TSU-Pr1 cells): > 10 µM

CC[C@H](C)[C@H](NC(=O)[C@H](CCCCN)NC(=O)[C@H](CC(N)=O)NC(=O)[C@H](CCC(N)=O)NC(=O)N1CCOCC1)C(=O)N[C@@H](CO)C(=O)N[C@@H](Cc1ccc(O)cc1)C(=O)N[C@@H](CCC(N)=O)C(=O)Nc1ccc2c(C)cc(=O)oc2c1 [QNKISYQ, Gln-Asn-Lys-Ile-Ser-Tyr-Gln] ({Morpholide-CO}-QNKISYQ-{AMC})
Picomoles of substrate cleaved/minute/200 pmoles of indicated protease: PSA ([1]; PSA assay buffer pH 7.8, room temperature): 16.8 picomoles/minute/200 pmoles pr
Picomoles of substrate cleaved/minute/200 pmoles of indicated protease: Elastase (Elastase): 9.0 picomoles/minute/200 pmoles pr
Picomoles of substrate cleaved/minute/200 pmoles of indicated protease: Plasmin (Plasmin): UD (at most, 0.1 pmole of substrate cleavage per minute per 200 pmole protease took place)
Picomoles of substrate cleaved/minute/200 pmoles of indicated protease: Trypsin (Trypsin): UD (at most, 0.1 pmole of substrate cleavage per minute per 200 pmole protease took place)
Picomoles of substrate cleaved/minute/200 pmoles of indicated protease: Chymo (chymotrypsin): 9.0 picomoles/minute/200 pmoles pr
Picomoles of substrate cleaved/minute/200 pmoles of indicated protease: Thromb (thrombin): 0.4 picomoles/minute/200 pmoles pr
Picomoles of substrate cleaved/minute/200 pmoles of indicated protease: TPA [2]: 0.4 picomoles/minute/200 pmoles pr
picomles AMC released/minute: Calf [3]: UD (not more than 0.01 picomole of substrate per minute was cleaved)
picomles AMC released/minute: Fetal Calf [3]: 11.60 picomoles/minute
picomles AMC released/minute: Goat [3]: 5.54 picomoles/minute
picomles AMC released/minute: Mouse [3]: 1.67 picomoles/minute
picomles AMC released/minute: Rat [3]: 10.7 picomoles/minute
picomles AMC released/minute: Human ([3]; human serum 100%): 1.54 picomoles/minute

KLQ: shorter sequence formed by deleting amino acids from the amino terminal side of EHSSKLQ; AMC substrate (Mu-Lys-Leu-Gln-{AMC}; also: AMC substrate)
picomoles of peptide cleaved/min/200 picomoles protease: PSA ([1]; pH 7.8, SKLQ, KLQ, LQ in 1.4% acetonitrile/buffer, Q-AMC in 0.2% formic acid/buffer): 0.4 picomoles/min/200 picomoles pr
picomoles of peptide cleaved/min/200 picomoles protease: Cath B (Cathepsin B): 87.0 picomoles/min/200 picomoles pr
picomoles of peptide cleaved/min/200 picomoles protease: Cath C (Cathepsin C): UD (at most, 0.1 pmole of substrate cleavage per minute per 200 pmole protease took place)
picomoles of peptide cleaved/min/200 picomoles protease: Esterase (porcine liver esterase): UD (at most, 0.1 pmole of substrate cleavage per minute per 200 pmole protease took place)

C/C=C(/C)C(=O)OC1C(C)=C2C(C1OC(=O)CCCCCCC)C(C)(OC(C)=O)CC(OC(=O)c1ccc(NC(=O)OC(C)(C)C)cc1)C1(O)C2OC(=O)C1(C)O (centres unmarked) [ABT-boc, 8-O-(4-t-butoxycarbonylaminobenzoyl)-8-O-debutanoylthapsigargin]
CC50 (TSU-Pr1 cells): 12 ± 0.3 µM
